Assay results reported in patent US20100227828A1, “NEW SYNERGISTIC PHYTOCHEMICAL COMPOSITION FOR THE TREATMENT OF OBESITY” (LAILA NUTRACEUTICALS, priority 2007, published 2010).

Legend:
5-lipoxygenase = test: 5-Lipoxygenase inhibitory activity, colorimetric method; type: biochemical
Method: The new dietary/pharmaceutical supplement compositions are screened for their 5-lipoxygenase inhibitory potential using colorimetric method. The assay mixture contained 50 mM phosphate buffer (pH 6.3), 5-lipoxygenase, various concentrations of test composition (5 μg, 10 μg, 20 μg) in dimethylsulphoxide and linolenic acid in a total volume of 0.5 mL, after 5 min incubation of above reaction mixture 0.5 mL ferric xylenol orange reagent is added and OD is measured after two minutes at 585 nm using spectrophotometer. Controls are run along with test in a similar manner except using vehicle instead of test substance solution. Percent inhibition is calculated by comparing absorbance of the test solution with that of control.

[1] = Protective effect against diet induced obesity in rats; type: in vivo, Sprague-Dawley rats; settings: 7 mg/kg oral per day, 8 weeks with high fat diet
Method: Selected healthy Sprague-Dawley rats were randomly assigned to control or various treatment groups (n=6). All the animals allocated for protective phase of the study were on dietary intervention by feeding high fat diet ad libitum and the animals allocated to treatment groups were simultaneously given oral administration of 250 mg/kg of composition-1 or 7 mg/kg sibutramine per day in […] of 0.5% CMC, using gastric tube for the entire 8 week study duration. The test animals of the control group were simultaneously given 10 ml/kg of 0.5% CMC. Food and water consumption were recorded daily, body weights were recorded weekly and fasting blood samples were collected before initiation, after 4th week and 8th week (termination) of the study.

C[C@H](Cc1ccc(O)c(O)c1)[C@@H](C)Cc1ccc(O)c(O)c1 [NDGA, Nordihydroguiaretic acid]
% of inhibition (5-Lipoxygenase) (5-lipoxygenase; 5 μg): 50.2%
% of inhibition (5-Lipoxygenase) (5-lipoxygenase; 10 μg): 77.35%

CC(C)CC(N(C)C)C1(c2ccc(Cl)cc2)CCC1 (stereo not drawn) [sibutramine]
reduction in weight gain [1]: 28.2%
